# Measured values from PMC3499368, “Evolution of Minimal Specificity and Promiscuity in Steroid Hormone Receptors” (PLoS Genetics, 2012).
# pEC50: −log10 of the molar value. Like-named read-outs stand apart in the source and are kept apart here.
# Assays:
# AncSR1 = experiment: luciferase reporter assay, inhibition of AncSR1 in the presence of estradiol; type: cell-based; details: with estradiol
# AncSR2 = experiment: luciferase reporter assay, inhibition of AncSR2 in the presence of EC80 11-deoxycorticosterone; details: in the presence of EC80 11-deoxycorticosterone (1.7 nM)
# AncSR1_Alt2 = experiment: luciferase reporter assay, alternative reconstruction AncSR1_Alt2; type: cell-based; details: Alt2, Fig. S5B
# From the text: (§1) To determine the robustness of functional inferences to statistical uncertainty in the reconstruction of AncSR1 and AncSR2, we used two approaches. AncSR1 had too many ambiguously reconstructed sites to examine each such residue individually, so we computationally sampled from the posterior probability distribution of reconstructed amino acid states to generate a cloud of possible ancestral sequences, each harboring a large number of alternate states. Specifically, we generated 1,000,000 possible ancestral sequences by sampling from the posterior probability distribution of states at each site. […] We synthesized these five radically alternative ancestral reconstructions de novo and repeated the functional assays.
# (§2) A) Distribution of posterior probabilities of 1 million protein sequences assembled by sampling amino acid states at each site from the posterior probability distribution for AncSR1 LBD. The ML reconstruction (AncSR1-ML) and the five alternative sequences with the highest posterior probability (Alt1-Alt5) in the 1 million samples are […]
# (§3) The column height and error bars indicate the mean and SEM of three independent experiments, respectively. […]
# [1] = biological target: T1, estrogen receptor ligand binding domain (Platynereis dumerilii, UniProt C0IR13); experiment: activation of the estrogen receptor ligand binding domain of Platynereis dumerilii
# T1 sequence (C0IR13 197-482): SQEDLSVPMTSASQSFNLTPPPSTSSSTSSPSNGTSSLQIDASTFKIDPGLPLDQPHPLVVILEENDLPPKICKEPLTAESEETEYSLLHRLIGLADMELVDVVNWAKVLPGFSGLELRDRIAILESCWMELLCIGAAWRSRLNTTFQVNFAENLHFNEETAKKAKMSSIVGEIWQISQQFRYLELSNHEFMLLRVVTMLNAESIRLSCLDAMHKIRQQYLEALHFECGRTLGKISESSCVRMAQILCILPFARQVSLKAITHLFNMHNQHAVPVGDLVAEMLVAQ
# From the text: (§4) Fig. S8 Activation of the estrogen receptor ligand binding domains of two annelids (Capitella capitata, a polychaete worm &
# (§5) Values adjacent to the hormone legends (red squares and black triangles) indicate the EC50 value for
# AncSR2-LBD = experiment: luciferase reporter gene assay, Gal4-DBD fusion of AncSR2-LBD in CHO-K1 cells, activation; type: cell-based; details: for pEC50: AncSR2, representative dose activation curves (Fig. S4) and Table S5 sections c-i
# From the text: To experimentally test these hypotheses, we synthesized cDNAs for the AncSR1 and AncSR2 LBD protein sequences, expressed them as Gal4-DBD fusion constructs, and characterized their sensitivity to hormones using luciferase reporter gene assays. […] It was unresponsive to a broad array of androgens, progestagens, and corticosteroids, as well as cholesterol (Figure 2A, Figure S3).
# For AncSR2, we identified all plausible alternate reconstructions (those with posterior probability >0.20 excluding biochemically similar K/R, D/E, S/T, and I/L differences) and introduced each alternate state individually into the AncSR2 background using the Quikchange Mutagenesis kit (Stratagene), verified clones by sequencing, and repeated the activation assays with each version of AncSR2 (Figure S6). The ML AncSR2 sequence reconstructed on the ML tree had high baseline activation in the absence of ligand; this phenotype is almost certainly an artifact, because constitutive baseline activity is not present in any of AncSR2's extant descendants; it is well-established that some amino acid replacements can cause nuclear receptors to become constitutive by marginally stabilizing the active conformation in the absence of hormone. […] The “constitutive” Leu79 state is weakly supported on the ML tree (PP = 0.59), and has no support (PP = 0.00) on the phylogeny that is most parsimonious in terms of gene duplications and losses; in contrast, the “non-constitutive” state Met79 has PP = 0.41 on the ML tree and PP = 1.00 on the rearranged gene duplication/loss tree (Figure S12, Table S8). The AncSR2 sequence used for all experiments reported in the text therefore contains state Met79. The other alternate reconstructions were then reintroduced into this AncSR2 sequence: none qualitatively changed the receptor's sensitivity to the various classes of steroid hormones, except for A171V, which conferred constitutive activity (Figure S6).
# AncSR1_Alt3 = experiment: luciferase reporter assay, alternative reconstruction AncSR1_Alt3; type: cell-based; details: Alt3, Fig. S5B
# From the text: as §1, §2, §3
# AncSR1_Alt1 = experiment: luciferase reporter assay, alternative reconstruction AncSR1_Alt1; type: cell-based; details: Alt1, Fig. S5B
# From the text: as §1, §2, §3
# AncSR1_Alt4 = experiment: luciferase reporter assay, alternative reconstruction AncSR1_Alt4; type: cell-based; details: Alt4, Fig. S5B
# From the text: as §1, §2, §3
# AncSR1-LBD = experiment: luciferase reporter gene assay, Gal4-DBD fusion of AncSR1-LBD in CHO-K1 cells, activation; type: cell-based
# From the text: To experimentally test these hypotheses, we synthesized cDNAs for the AncSR1 and AncSR2 LBD protein sequences, expressed them as Gal4-DBD fusion constructs, and characterized their sensitivity to hormones using luciferase reporter gene assays.
# [2] = biological target: T2, estrogen receptor ligand binding domain (Capitella capitata, UniProt C0IRV2); experiment: activation of the estrogen receptor ligand binding domain of Capitella capitata
# T2 sequence (C0IRV2 151-381): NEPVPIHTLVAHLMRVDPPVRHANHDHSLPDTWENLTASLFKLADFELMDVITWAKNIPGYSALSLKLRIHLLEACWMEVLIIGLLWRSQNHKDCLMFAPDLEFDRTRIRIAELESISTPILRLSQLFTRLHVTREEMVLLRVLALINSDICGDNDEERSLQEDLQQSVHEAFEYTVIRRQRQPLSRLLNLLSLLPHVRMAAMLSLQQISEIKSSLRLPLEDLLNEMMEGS
# From the text: as §4, §5
# AncSR1_Alt5 = experiment: luciferase reporter assay, alternative reconstruction AncSR1_Alt5; type: cell-based; details: Alt5, Fig. S5B
# From the text: as §1, §2, §3
# [3] = biological target: T3, human mineralocorticoid receptor (hMR) (Homo sapiens, UniProt P08235); experiment: luciferase reporter assay, human MR LBD; type: cell-based
# T3 sequence (P08235 736-984): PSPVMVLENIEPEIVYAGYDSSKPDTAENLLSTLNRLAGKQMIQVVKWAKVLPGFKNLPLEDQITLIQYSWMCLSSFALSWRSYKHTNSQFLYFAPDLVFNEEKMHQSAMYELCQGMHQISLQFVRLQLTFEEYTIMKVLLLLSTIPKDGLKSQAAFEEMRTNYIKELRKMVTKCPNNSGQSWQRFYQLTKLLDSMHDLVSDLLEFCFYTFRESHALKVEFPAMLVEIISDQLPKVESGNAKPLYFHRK
# [4] = biological target: T4, human estrogen receptor alpha (hERα) (Homo sapiens, UniProt P03372); experiment: luciferase reporter assay, human ERα LBD; type: cell-based; details: Fig. S8
# T4 sequence (P03372 311-595 limits assumed): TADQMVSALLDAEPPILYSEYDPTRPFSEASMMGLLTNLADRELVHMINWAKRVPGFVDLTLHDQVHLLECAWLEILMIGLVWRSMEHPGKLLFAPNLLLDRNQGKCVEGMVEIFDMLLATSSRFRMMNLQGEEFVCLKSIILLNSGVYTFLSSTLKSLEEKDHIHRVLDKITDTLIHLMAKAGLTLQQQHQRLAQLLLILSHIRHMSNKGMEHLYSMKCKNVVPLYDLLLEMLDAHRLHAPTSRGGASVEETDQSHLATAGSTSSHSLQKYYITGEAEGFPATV
# [5] = AncSR1, representative dose activation curves (Fig. S3) and Table S5 section b
# [6] = AncSR2, Table S5 section c, pairs H1/H2: 23/8, 19/18, listed as given under Hormone 1
smiles,measurement,setting,value
"CC/C(=C(\c1ccc(O)cc1)c1ccc(OCCN(C)C)cc1)c1ccccc1 [4-hydroxytamoxifen, 4-Hydroxytamoxifen]",inhibition of AncSR1 (in words),AncSR1,competitively inhibited
same,inhibition of AncSR2 (in words),AncSR2,not inhibited
"C[C@]12CC[C@@H]3c4ccc(O)cc4C[C@@H](CCCCCCCCC[S+]([O-])CCCC(F)(F)C(F)(F)F)[C@H]3[C@@H]1CC[C@@H]2O (stereo partly shown) [ICI 182,780, fulvestrant]",inhibition of AncSR1 (in words),AncSR1,competitively inhibited
same,inhibition of AncSR2 (in words),AncSR2,not inhibited
C[C@]12CC[C@@H]3c4ccc(O)cc4CC[C@H]3[C@@H]1CC[C@@H]2O [estradiol],pEC50,AncSR1_Alt2,6.46
same,pEC50,[1],7.92
same,pEC50,AncSR2-LBD; read-out: EC50,< 5.00
same,pEC50,AncSR1_Alt3,7.92
same,pEC50,AncSR1_Alt1,7.30
same,pEC50,AncSR1_Alt4,6.50
same,EC80,"AncSR1-LBD; AncSR1, estradiol concentration used in inhibition assay",200 nM
same,pEC50,AncSR1-LBD; [5],7.31
same,pEC50,"AncSR1-LBD; AncSR1-ML, Fig. S5B",7.18
same,pEC50,[2],8.07
same,pEC50,AncSR1_Alt5,7.03
C[C@]12CCC(=O)C=C1CC[C@@H]1[C@@H]2[C@@H](O)C[C@@]2(C)[C@H]1CC[C@]2(O)C(=O)CO [cortisol],pEC50,AncSR2-LBD; read-out: EC50,8.01
same,pEC50,[3],7.43
"CC(=O)[C@H]1CCC2C3CCc4cc(O)ccc4C3CC[C@@]21C (stereo partly shown) [NPT, 19-nor-1,3, 5(10)-pregnatriene-3-ol-20-one]",pEC50,[1],8.92
same,"Ratio H1/H2 of EC50, preference for non-aromatized A-ring",AncSR2-LBD; [6],113.75
same,"Ratio H2/H1 of EC50, preference for non-aromatized A-ring",AncSR2-LBD; [6],0.01
same,pEC50,AncSR2-LBD,6.74
same,pEC50,AncSR1-LBD; [5],6.75
same,activation of AncSR1 (in words),AncSR1-LBD; luciferase reporter,almost as potent an AncSR1 activator as endogenous estrogens
same,pEC50,[4],8.27
same,pEC50,[2],8.06
